Test results: patent US6579881B2 (Eisai Co., Ltd., priority 1997, dated 2003)

Legend:
serotonin 2 receptor = serotonin 2 receptor (Rattus norvegicus, UniProt P14842); test: Binding test on [3H] ketanserin (serotonin 2 receptor); details: [3H] ketanserin 0.3 nM, receptor fraction of rat cerebral cortex; read-out: 5HT2
serotonin 1A receptor = molecular target: T1, serotonin 1A receptor (Rattus norvegicus, UniProt P19327); test: Binding test on [3H] 8-hydroxy-dipropylaminotetralin (serotonin 1A receptor); details: [3H] 8-OH-DPAT 0.5 nM, receptor fraction of rat hippocampus; read-out: 5HT1a
T1 construct: To the receptor fraction of the hippocampus were added a test compound and 0.5 nM of [^3H]; 8-hydroxy-dipropylaminotetralin; from tissue; host or cells: SD rat hippocampus, membrane (receptor) fraction
T1 sequence (P19327 1-422): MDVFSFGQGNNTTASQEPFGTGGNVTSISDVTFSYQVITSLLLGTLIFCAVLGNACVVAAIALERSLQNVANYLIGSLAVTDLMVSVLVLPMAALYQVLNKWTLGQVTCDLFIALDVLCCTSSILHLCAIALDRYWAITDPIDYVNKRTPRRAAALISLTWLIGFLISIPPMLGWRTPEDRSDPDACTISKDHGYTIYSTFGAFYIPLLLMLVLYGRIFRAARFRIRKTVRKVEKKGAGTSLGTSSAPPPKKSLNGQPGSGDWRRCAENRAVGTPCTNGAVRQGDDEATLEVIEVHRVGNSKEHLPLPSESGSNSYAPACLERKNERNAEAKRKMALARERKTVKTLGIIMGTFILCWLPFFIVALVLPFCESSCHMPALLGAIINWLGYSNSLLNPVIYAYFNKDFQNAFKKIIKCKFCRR

serotonin 2 receptor, sequence (P14842 whole entry): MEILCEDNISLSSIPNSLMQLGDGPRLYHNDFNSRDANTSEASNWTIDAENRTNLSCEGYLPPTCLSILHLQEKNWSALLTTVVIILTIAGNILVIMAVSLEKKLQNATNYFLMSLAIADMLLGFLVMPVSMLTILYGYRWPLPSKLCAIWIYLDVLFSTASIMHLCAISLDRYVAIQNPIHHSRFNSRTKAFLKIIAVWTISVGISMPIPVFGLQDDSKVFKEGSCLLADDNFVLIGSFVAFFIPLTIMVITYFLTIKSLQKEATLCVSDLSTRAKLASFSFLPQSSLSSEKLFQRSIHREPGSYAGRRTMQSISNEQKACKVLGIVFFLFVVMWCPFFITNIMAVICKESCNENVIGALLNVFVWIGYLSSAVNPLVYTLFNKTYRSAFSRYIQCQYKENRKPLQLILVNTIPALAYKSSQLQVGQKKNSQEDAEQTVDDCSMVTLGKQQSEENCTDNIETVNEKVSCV

| Compound | Ki (serotonin 2 receptor) [nM] | Ki (serotonin 1A receptor) [nM] |
| --- | --- | --- |
| 1-[1-(4-fluorophenethyl)piperidin-4-yl]-6-(1,2,3-triazol-1-yl)methylindoline and 1-[1-(4-fluorophenethyl)piperidin-4-yl]-6-(1,2,3-triazol-2-yl)methylindoline [Example 212] | 0.36 | 0.82 |
| CC1CC(C2CCN(CCc3ccc(F)cc3)CC2)c2nccnc21 (mixture of isomers) [Example 266, 5-[1-(4-fluorophenethyl)piperidin-4-yl]-7-methyl-5,6-dihydro-5H-cyclopentapyrazine] | 22.6 | 31.6 |
| C[C@@H]1CN(CCc2ccc(F)cc2)CC[C@@H]1N1CCc2ccccc21 (relative stereo) [Example 79, cis-1-[1-(4-fluorophenethyl)-3-methylpiperidin-4-yl]indoline] | 26.5 | 115 |
| OC[C@@H]1CN(CCc2ccc(F)cc2)CC[C@@H]1N1CCc2ccccc21 (relative stereo) [Example 81, cis-1-[1-(4-fluorophenethyl)-3-hydroxymethylpiperidin-4-yl]indoline] |  | 44.3 |
| OC[C@H]1CN(CCc2ccc(F)cc2)CC[C@@H]1N1CCc2ccccc21 (relative stereo) [Example 82, trans-1-[1-(4-fluorophenethyl)-3-hydroxymethylpiperidin-4-yl]indoline] | 5.3 | 71.2 |
| CCN1CC[C@H](N2CCc3ccccc32)[C@H](COc2ccc(F)cc2)C1 (relative stereo) [Example 84, cis-1-[1-ethyl-3-(4-fluorophenoxymethyl)piperidin-4-yl]indoline] | 134 | > 200 |
| CCN1CC[C@H](N2CCc3ccccc32)[C@@H](COCc2ccc(F)cc2)C1 (relative stereo) [Example 85, trans-1-[1-ethyl-3-(4-fluorobenzyloxymethyl)piperidin-4-yl]indoline] | 56.2 | 170 |
| CCN1CCN([C@@H]2c3cc(OC)ccc3CC[C@H]2Oc2ccc(C(F)(F)F)cc2)CC1 (relative stereo) [Example 279, trans-1-(4-ethylpiperazin-1-yl)-7-methoxy-2-(4-trifluoromethylphenoxy)-1,2,3,4-tetrahydronaphthalene] | 90.4 | 0.22 |
| Fc1ccc(N2CCC(N3CCc4ccccc43)CC2)cc1 [Example 1, 1-[1-(4-fluorophenyl)piperidin-4-yl]indoline] | > 200 | 624 |
| c1ccc(CCN2CCC(N3CCc4ccccc43)CC2)cc1 [Example 3, 1-(1-phenethylpiperidin-4-yl)indoline] | 17.4 | 28.7 |
| Clc1cccc(CCN2CCC(N3CCc4ccccc43)CC2)c1 [Example 5, 1-[1-(3-chlorophenethyl)piperidin-4-yl]indoline] | 8.1 | 10.1 |
| Fc1ccccc1CCN1CCC(N2CCc3ccccc32)CC1 [Example 7, 1-[1-(2-fluorophenethyl)piperidin-4-yl]indoline] | 12.8 | 34.3 |
| Fc1ccc(CCN2CCC(N3CCc4ccccc43)CC2)c(F)c1 [Example 10, 1-[1-(2,4-difluorophenethyl)piperidin-4-yl]indoline] | 6 | 8.1 |
| Fc1cc(F)cc(CCN2CCC(N3CCc4ccccc43)CC2)c1 [Example 12, 1-[1-(3,5-difluorophenethyl)piperidin-4-yl]indoline] | 16.3 | 8.5 |
| OCCc1ccc(CCN2CCC(N3CCc4ccccc43)CC2)cc1 [Example 24, 1-{1-[4-(2-hydroxyethyl)phenethyl]piperidin-4-yl}indoline] | 174 | 26.5 |
| NC(=O)c1ccc(CCN2CCC(N3CCc4ccccc43)CC2)cc1 [Example 40, 1-[1-(4-carbamoylphenethyl)piperidin-4-yl]indoline] | > 200 | 43.7 |
| CC(C)NC(=O)Cc1ccc(CCN2CCC(N3CCc4ccccc43)CC2)cc1 [Example 41, 1-[1-(4-N-isopropylcarbamoylmethylphenethyl)piperidin-4-yl]indoline] | 5.03 | 19.8 |
| OCCOc1cccc(CCN2CCC(N3CCc4ccccc43)CC2)c1 [Example 43, 1-{3-[(2-hydroxyethoxy)phenethyl]piperidin-4-yl}indoline] | 37.9 | 4.2 |
| CN(C)CCOc1ccc(CCN2CCC(N3CCc4ccccc43)CC2)cc1 [Example 44, 1-{1-[4-(2-dimethylaminoethoxy)phenethyl]piperidin-4-yl}indoline] | 43.7 | 4 |
| OCc1ccc(CCN2CCC(N3CCc4ccccc43)CC2)cc1CO [Example 45, 1-{1-[3,4-di(hydroxymethyl)phenethyl]piperidin-4-yl}indoline] | 6.4 | 15.2 |
| c1ccc2c(c1)CCN2C1CCN(CCc2ccc3c(c2)OCO3)CC1 [Example 46, 1-{1-[3,4-(methylenedioxy)phenethyl]piperidin-4-yl}indoline] | 4.2 | 1.1 |
| COc1ccc2c(c1)CCN2C1CCN(CCc2ccc(F)cc2)CC1 [Example 99, 1-[1-(4-fluorophenethyl)piperidin-4-yl]-5-methoxyindoline] | 8.7 |  |
| O=C(Cc1ccc2c(c1)N(C1CCN(CCc3ccc(F)cc3)CC1)CC2)NC1CC1 [Example 154, 1-[1-(4-fluorophenethyl)piperidin-4-yl]-6-(cyclopropylcarbamoylmethyl)indoline] |  | 6.52 |

Further lines, results first:

| Ki (serotonin 2 receptor) [nM] | Ki (serotonin 1A receptor) [nM] | Compound |
| --- | --- | --- |
| 24.9 | 6 | Brc1ccc(CCN2CCC(N3CCc4ccccc43)CC2)cc1 [Example 4, 1-[1-(4-bromophenethyl)piperidin-4-yl]indoline] |
| 17.4 | 4.5 | Clc1ccc(CCN2CCC(N3CCc4ccccc43)CC2)cc1 [Example 6, 1-[1-(4-chlorophenethyl)piperidin-4-yl]indoline] |
| 26.9 | 13.5 | Fc1cccc(CCN2CCC(N3CCc4ccccc43)CC2)c1 [Example 8, 1-[1-(3-fluorophenethyl)piperidin-4-yl]indoline] |
| 28.6 | 28.6 | Fc1ccc(CCCCN2CCC(N3CCc4ccccc43)CC2)cc1 [Example 15, 1-[1-(4-fluorophenylbutyl)piperidin-4-yl]indoline] |
| 13.9 | 109 | Fc1ccc(CCN2CCC(CN3CCc4ccccc43)CC2)cc1 [Example 16, 1-[1-(4-fluorophenethyl)piperidin-4-yl]methylindoline] |
| 16.4 | 19 | Fc1ccc(CCN2CCC(CCN3CCc4ccccc43)CC2)cc1 [Example 17, 1-{2-[1-(4-fluorophenethyl)piperidin-4-yl]ethyl}indoline] |
| 0.12 | 0.13 | COc1ccc(CCN2CCC(N3CCc4ccccc43)CC2)cc1 [Example 18, 1-[1-(4-methoxyphenethyl)piperidin-4-yl]indoline] |
| 0.22 | 15.2 | Oc1ccc(CCN2CCC(N3CCc4ccccc43)CC2)cc1 [Example 20, 1-[1-(4-hydroxyphenethyl)piperidin-4-yl]indoline] |
| 42.7 | 1.9 | N#Cc1ccc(CCN2CCC(N3CCc4ccccc43)CC2)cc1 [Example 21, 1-[1-(4-cyanophenethyl)piperidin-4-yl]indoline] |
| 14.6 | 7.4 | OCc1ccc(CCN2CCC(N3CCc4ccccc43)CC2)cc1 [Example 23, 1-[1-(4-hydroxymethylphenethyl)piperidin-4-yl]indoline] |
| 13.1 | 8.3 | CC(O)c1ccc(CCN2CCC(N3CCc4ccccc43)CC2)cc1 (stereo not drawn) [Example 25, 1-{4-[(1-hydroxyethyl)phenethyl]piperidin-4-yl}indoline] |
| 28.8 | > 200 | FC(F)(F)c1ccc(CCN2CCC(N3CCc4ccccc43)CC2)cc1 [Example 27, 1-[1-(4-trifluoromethylphenethyl)piperidin-4-yl]indoline] |
| 8.1 | 46.9 | CS(=O)(=O)c1ccc(CCN2CCC(N3CCc4ccccc43)CC2)cc1 [Example 28, 1-[1-(4-methanesulfonylphenethyl)piperidin-4-yl]indoline] |
| 15.7 | 21.9 | Nc1ccc(CCN2CCC(N3CCc4ccccc43)CC2)cc1 [Example 30, 1-[1-(4-aminophenethyl)piperidin-4-yl]indoline] |
| 30.2 | 30.2 | CC(=O)Nc1ccc(CCN2CCC(N3CCc4ccccc43)CC2)cc1 [Example 32, 1-[1-(4-acetamidophenethyl)piperidin-4-yl]indoline] |
| 24.3 | 5.7 | CCNc1ccc(CCN2CCC(N3CCc4ccccc43)CC2)cc1 [Example 33, 1-[1-(4-ethylaminophenethyl)piperidin-4-yl]indoline] |
| 37.6 | 16.6 | NCc1ccc(CCN2CCC(N3CCc4ccccc43)CC2)cc1 [Example 35, 1-[1-(4-aminomethylphenethyl)piperidin-4-yl]indoline] |
| 14.8 | 4.6 | O=C(CCl)NCc1ccc(CCN2CCC(N3CCc4ccccc43)CC2)cc1 [Example 37, 1-[1-(4-chloroacetamidomethylphenethyl)piperidin-4-yl]indoline] |
| 8.9 | 1.6 | CCC(=O)NCc1ccc(CCN2CCC(N3CCc4ccccc43)CC2)cc1 [Example 39] |
